Here are results for 2 compounds from patent publication US12338256B2, “Aza-tetracyclic oxazepine compounds and uses thereof” (Genentech, Inc., priority 2022, dated 2025).

Usually IC50 stands for the concentration that inhibits the measured activity by half.

One assay has as its target KRAS G12D (Homo sapiens, UniProt P01116, G12D). In words: KRAS G12D LoEnz Biochemical Assay, BODIPY-GDP Exchange TR-FRET (Example 500). To be noted: BODIPY-GDP exchange, read-out: KRas (G12D) GDP HTRF IC50. As for the experimental part:
Example 500: KRAS G12D LoEnz Biochemical Assay, BODIPY-GDP Exchange TR-FRET. Biochemical compound potencies are assessed by evaluating inhibition of SOS1-mediated nucleotide exchange in KRAS G12D. In this assay, the SOS1-promoted exchange of fluorescently-labeled GDP (BOPIDY-GDP) is monitored by time-resolved fluorescence resonance energy transfer (TR-FRET). Compounds solubilized in DMSO are dispensed as concentration series into 384-well white assay plates. A preformed complex of biotin-tagged recombinant human KRAS (0.06 nM mutant G12D) and 0.06 nM terbium-labeled streptavidin (CisBIO) prepared in 10 uL/well assay buffer (20 mM HEPES, pH 7.5, 50 mM NaCl, 10 mM MgCl2, 0.01% Tween-20 and 1 mM dithiothreitol) is added and allowed to incubate for 10-minutes at room temperature. The reaction is initiated with the addition of 5 uL 300 nM recombinant human SOS1 and 300 nM BODIPY-GDP in assay buffer. After a 120-minute incubation, the fluorescence is measured with excitation at 337 nm and emission at 490 and 520 nm. The TR-FRET ratio is determined as the fluorescence at 520 nm divided by the fluorescence at 490 nm multiplied by 10,000. The results are normalized to percent inhibition based on control samples: DMSO (0% inhibition) and control compound at a concentration that inhibits completely (100% inhibition). The normalized TR-FRET results are plotted against compound concentration, and the data are fit to a 4-parameter Hill equation to determine the IC50 values.
On the technique in general: In TR-FRET formats the signal depends on donor and acceptor labels being close together.

Assay [1] has as its system H1975 (KRAS wild type human lung adenocarcinoma cell line). In words: KRAS 3D-Cell Proliferation Assay, H1975 (Example 503). Format: cell-based. To be noted: Homo sapiens, NCI-H1975, 168 h, H1975 3D culture, 7 days, CellTiter-Glo 3D; read-out: Prolif H1975 3D ATP IC50. A digest of the protocol: (§1)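 Luminescent ATP readout (CellTiter-Glo 3D, with mechanical mixing) measures growth of cells cultured in 3D after a 7-day compound exposure at 37° C. Percent inhibition is referenced to vehicle (DMSO) and 1 μM staurosporine controls, and IC50 comes from a four-parameter Hill fit.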
On the technique in general: Cellular ATP, detected with luciferase, serves as a proxy for viable cell number.

Assay [2] concerns HPAC (homozygous mutant KRAS G12D human pancreatic cell line). In words: KRAS 3D-Cell Proliferation Assay, HPAC (Example 503). Format: cell-based. To be noted: Homo sapiens, HPAC, 168 h, HPAC 3D culture, 7 days, CellTiter-Glo 3D; read-out: Prolif HPAC 3D ATP IC50. The gist of the method: as §1
A further assay deals with KRAS WT (Homo sapiens, UniProt P01116). In words: KRAS WT Biochemical Assay, BODIPY-GDP Exchange TR-FRET (Example 502; 0.06 nM KRAS WT, 15 nM GDP, 300 nM SOS1, 120-minute incubation). To be noted: SOS1-mediated BODIPY-GDP exchange, read-out: KRas HTRF IC50. As for the experimental part:
Example 502: KRAS WT Biochemical Assay, BODIPY-GDP Exchange TR-FRET. Biochemical compound potencies are assessed by evaluating inhibition of SOS1-mediated nucleotide exchange in KRAS WT. In this assay, the SOS1-promoted exchange of fluorescently-labeled GDP (BOPIDY-GDP) is monitored by time-resolved fluorescence resonance energy transfer (TR-FRET). Compounds solubilized in DMSO are dispensed as concentration series into 384-well white assay plates. A preformed complex of 0.06 nM biotin-tagged recombinant human KRAS WT, 15 nM GDP and 0.06 nM terbium-labeled streptavidin (CisBIO) prepared in 10 uL/well assay buffer (20 mM HEPES, pH 7.5, 50 mM NaCl, 10 mM MgCl2, 0.01% Tween-20 and 1 mM dithiothreitol) is added and allowed to incubate for 10-minutes at room temperature. The reaction is initiated with the addition of 5 uL 300 nM recombinant human SOS1 and 300 nM BODIPY-GDP in assay buffer. After a 120-minute incubation, the fluorescence is measured with excitation at 337 nm and emission at 490 and 520 nm. The TR-FRET ratio is determined as the fluorescence at 520 nm divided by the fluorescence at 490 nm multiplied by 10,000. The results are normalized to percent inhibition based on control samples: DMSO (0% inhibition) and control compound at a concentration that inhibits completely (100% inhibition). […]

The test system of assay [3] is AsPC-1 (homozygous mutant KRAS G12D human pancreatic cell line). In words: KRAS 3D-Cell Proliferation Assay, AsPC-1 (Example 503). Format: cell-based. To be noted: Homo sapiens, ASPC1, 168 h, AsPC-1 3D culture, 7 days, CellTiter-Glo 3D; read-out: Prolif AsPC-1 3D ATP IC50. The gist of the method:
as §1

Chain of KRAS WT (P01116 1-188 isoform P01116-2): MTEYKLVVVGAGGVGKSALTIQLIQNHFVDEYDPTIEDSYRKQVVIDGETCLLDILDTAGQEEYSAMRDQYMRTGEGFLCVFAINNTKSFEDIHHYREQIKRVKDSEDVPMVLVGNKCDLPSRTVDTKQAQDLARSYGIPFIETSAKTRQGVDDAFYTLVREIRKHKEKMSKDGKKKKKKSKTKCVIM
Chain of KRAS G12D (P01116 1-188 isoform P01116-2 G12D): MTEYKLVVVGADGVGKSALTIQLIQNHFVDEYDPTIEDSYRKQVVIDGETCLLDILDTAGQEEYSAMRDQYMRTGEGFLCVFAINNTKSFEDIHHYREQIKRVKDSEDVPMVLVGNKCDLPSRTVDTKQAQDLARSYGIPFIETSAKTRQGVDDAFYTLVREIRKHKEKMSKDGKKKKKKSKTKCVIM

For `Cc1c(F)c(N)cc(-c2nc3c4c(nc(OC[C@H]5CC[C@@H]6C(=O)N(C)CCN56)nc4c2F)N2C[C@H]4CC[C@H](N4)[C@H]2[C@H](C)O3)c1C(F)(F)F` (relative stereo) [Compound 123, 6-((((5S,5aS,6S,9R)-2-(5-Amino-4-fluoro-3-methyl-2-(trifluoromethyl)phenyl)-1-fluoro-5-methyl-5a,6,7,8,9,10-hexahydro-5H-4-oxa-3,10a,11,13,14-pentaaza-6,9-methanonaphtho[1,8-ab]heptalen-12-yl)oxy)methyl)-2-methylhexahydropyrrolo[1,2-a]pyrazin-1(2H)-one], the IC50 worked out at 0.7 nM at KRAS G12D, 13900 nM in assay [1], 63 nM in assay [2] and 181 nM on KRAS WT.

Take `C[C@@H]1Oc2nc(-c3cc(N)cc(F)c3C(F)(F)F)c(F)c3nc(OC[C@H]4CC[C@@H]5COC(C)(C)CN45)nc(c23)N2C[C@H]3CC[C@H](N3)[C@@H]12` (relative stereo) [Compound 125, 3-((5S,5aS,6S,9R)-12-((3,3-dimethylhexahydro-1H-pyrrolo[2,1-c][1,4]oxazin-6-yl)methoxy)-1-fluoro-5-methyl-5a,6,7,8,9,10-hexahydro-5H-4-oxa-3,10a,11,13,14-pentaaza-6,9-methanonaphtho[1,8-ab]heptalen-2-yl)-5-fluoro-4-(trifluoromethyl)aniline]: the IC50 stood at 0.23 nM on KRAS G12D; 1220 nM in assay [1]; 2.14 nM in assay [2]; 10.2 nM in assay [3]; 14.7 nM at KRAS WT.
